Measured values as given in US11591333B2, “Substituted pyrrolo[2,3-d]pyrimidines as janus kinase inhibitors” (CINKATE PHARM TECH (SHANGHAI) CO.,LTD., priority 2016, dated 2023).

Assays:
JAK2/JAK1 = assay: JAK enzyme activity inhibition, JAK2 versus JAK1 selectivity; type: biochemical; conditions: ratio of JAK2 IC50 to JAK1 IC50
Protocol: (§1) The tested compounds were dissolved in DMSO to provide a 10 mM mother solution. The compound was diluted to 1 mM in DMSO before use, and was gradient diluted by 3 folds to altogether 11 concentrations. After the buffer was prepared, JAK1, JAK2, JAK3 and the substrate were mixed with pre-diluted compounds in different concentrations, and allowed to stand at room temperature for 30 minutes, while each concentration was duplicated for twice. ATP was added and reacted at room temperature for 90 minutes, and antibody was added for detection after the reaction was completed.

JAK3/JAK1 = assay: JAK enzyme activity inhibition, JAK3 versus JAK1 selectivity; type: biochemical; conditions: ratio of JAK3 IC50 to JAK1 IC50
Protocol: as §1

mouse spleen cells [1] = assay: CD3/CD28 antibody-induced mouse spleen cell proliferation (CCK8); type: cell-based; conditions: for concentration at which inhibition of lymphocyte proliferation began: Anti-CD3/CD28 as the stimuli; for EC50: mouse spleen cells, CD3/CD28 antibodies as stimulus, read-out: Inhibition activity (EC50), CD3/CD28
mouse spleen cells [2] = assay: Mitogen ConA-induced mouse spleen cell proliferation (CCK8); type: cell-based; conditions: for concentration at which inhibition of lymphocyte proliferation began: ConA as the stimuli; for inhibition to the non-specific immunosuppression induced by mitogen: in words, compared with specific immunity; for EC50: mouse spleen cells, ConA as stimulus, read-out: Inhibition activity (EC50), ConA induction
Protocol: […] 5*10^5/well, with or without 50 uL of ConA at a concentration of 2.5 ug/uL as well as 50 uL inhibitors at a different concentration, while the negative control wells were supplemented with 50 uL of complete 1640 medium. After 48 hours of culture, the cell culture supernatant was collected for 100 uL/well for subsequent ELISA, and 10 uL/well of CCK8 reagent was added to detect the cell proliferation. The proliferation of immune cells was microscopic observed in each group.
[…] mouse spleen cells were adjusted to a cell concentration of 5*10^6/mL in complete 1640 medium, […], i.e., 5*10^5/well, […], as well as 50 uL of different concentrations of inhibitor (compound 1-6) while negative control well was supplemented with 50 uL of complete 1640 medium. […] The proliferation of immune cells was microscopic observed in each group, and the EC50 value was calculated.

C[C@@H]1CCN(C(=O)CC#N)C[C@@H]1N(C)c1ncnc2[nH]ccc12 [Tofatinib, reference compound]
Selectivity fold JAK2/JAK1 IC50 ratio (JAK2/JAK1): 2 fold
Selectivity fold JAK3/JAK1 IC50 ratio (JAK3/JAK1): <1 fold

5-methyl-isoxazole-{4-methyl-(7H-pyrrolo[2,3-d]pyrimidin-4-yl)-amino]-cyclohex yl}-amine [Compound 3]
Selectivity fold JAK2/JAK1 IC50 ratio (JAK2/JAK1): >10 fold
concentration at which inhibition of lymphocyte proliferation began (mouse spleen cells [1]): 10 µM
EC50 (mouse spleen cells [1]): 65.7 µM
Selectivity fold JAK3/JAK1 IC50 ratio (JAK3/JAK1): >10 fold
concentration at which inhibition of lymphocyte proliferation began (mouse spleen cells [2]): 10 µM
inhibition to the non-specific immunosuppression induced by mitogen (mouse spleen cells [2]): weak
EC50 (mouse spleen cells [2]): 90.7 µM

C/C(O)=C(\C#N)C(=O)Nc1ccc(C(F)(F)F)cc1 [Compound A771726, A771726, reference compound]
EC50 (mouse spleen cells [1]): > 200 µM
EC50 (mouse spleen cells [2]): > 200 µM

2-cyano-3-hydroxy-2-butene-{4-[methyl-(7H-pyrrolo[2,3-d]pyrimidin-4-yl)-amino]-phenyl]-amide [Compound 4]
Selectivity fold JAK2/JAK1 IC50 ratio (JAK2/JAK1): 7 fold
concentration at which inhibition of lymphocyte proliferation began (mouse spleen cells [1]): 50 µM
EC50 (mouse spleen cells [1]): 30.9 µM
Selectivity fold JAK3/JAK1 IC50 ratio (JAK3/JAK1): 5 fold
concentration at which inhibition of lymphocyte proliferation began (mouse spleen cells [2]): 100 µM
EC50 (mouse spleen cells [2]): 61.2 µM

Cc1oncc1C(=O)Nc1ccc(N(C)c2ncnc3[nH]ccc23)cc1 [Compound 2]
Selectivity fold JAK2/JAK1 IC50 ratio (JAK2/JAK1): >10 fold
concentration at which inhibition of lymphocyte proliferation began (mouse spleen cells [1]): 50 µM
EC50 (mouse spleen cells [1]): 15.1 µM
Selectivity fold JAK3/JAK1 IC50 ratio (JAK3/JAK1): >10 fold
concentration at which inhibition of lymphocyte proliferation began (mouse spleen cells [2]): 10 µM
EC50 (mouse spleen cells [2]): 40.3 µM

CN(c1ccc(N)cc1)c1ncnc2[nH]ccc12 [Compound 1, N-Methyl-N-(7H-pyrrolo[2,3-d]pyrimidin-4-yl)phenyl-1,4-diamine]
Selectivity fold JAK2/JAK1 IC50 ratio (JAK2/JAK1): 7 fold
concentration at which inhibition of lymphocyte proliferation began (mouse spleen cells [1]): 10 µM
EC50 (mouse spleen cells [1]): 22.7 µM
Selectivity fold JAK3/JAK1 IC50 ratio (JAK3/JAK1): 2 fold
concentration at which inhibition of lymphocyte proliferation began (mouse spleen cells [2]): 10 µM
inhibition to the non-specific immunosuppression induced by mitogen (mouse spleen cells [2]): weak
EC50 (mouse spleen cells [2]): 53.9 µM

2-cyano-3-hydroxy-2-butene-{4-[methyl-(7H-pyrrolo[2,3-d]pyrimidin-4-yl)-amino]-cyclohexyl]-amide [Compound 5]
Selectivity fold JAK2/JAK1 IC50 ratio (JAK2/JAK1): >10 fold
EC50 (mouse spleen cells [1]): > 100 µM
Selectivity fold JAK3/JAK1 IC50 ratio (JAK3/JAK1): >10 fold
EC50 (mouse spleen cells [2]): > 200 µM
